Reference: ChEMBL document CHEMBL1201862, “PubChem BioAssay data set” (2004)
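Cultured in 96-well plates, cells were exposed to test compound for 48 hours across five concentrations. Abbreviation: GI50, concentration required for 50% inhibition of growth.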 Activity calls are given as the source filed them. Cut-off read from the data, not from the text of the source: active = GI50 up to about 1.1 µM and inactive = higher. Where a SMILES comes first, the peptide text is derived from it. [ ]: non-standard residue; d: D form. The star is where a group is joined. Chg = N[CH](C(=O)O)C1CCCCC1; Cbz = O=C(OCc1ccccc1)*; OBn = c1ccc(CO*)cc1

Assays:
Test in all cases: NCI anticancer screen, dose series, 48 h
MCF7 = test system: MCF7
Hs-578T = test system: Hs-578T
MDA-N = test system: MDA-N
ACHN = test system: ACHN
Malme-3M = test system: Malme-3M
SNB-19 = test system: SNB-19
NCI-H460 = test system: NCI-H460
SF-268 = test system: SF-268
SK-MEL-28 = test system: SK-MEL-28
HL-60 = test system: HL-60
SW-620 = test system: SW-620
A549 = test system: A549
SK-MEL-2 = test system: SK-MEL-2
KM12 = test system: KM12
EKVX = test system: EKVX
SK-OV-3 = test system: SK-OV-3
HT-29 = test system: HT-29
NCI-H522 = test system: NCI-H522
786-0 = test system: 786-0
BT-549 = test system: BT-549

| SMILES | GI50 (MCF7) | GI50 (Hs-578T) | GI50 (MDA-N) | GI50 (ACHN) | GI50 (Malme-3M) | GI50 (SNB-19) | GI50 (NCI-H460) | GI50 (SF-268) | GI50 (SK-MEL-28) | GI50 (HL-60) | GI50 (SW-620) | GI50 (A549) | GI50 (SK-MEL-2) | GI50 (KM12) | GI50 (EKVX) | GI50 (SK-OV-3) | GI50 (HT-29) | GI50 (NCI-H522) | GI50 (786-0) | GI50 (BT-549) |
| --- | --- | --- | --- | --- | --- | --- | --- | --- | --- | --- | --- | --- | --- | --- | --- | --- | --- | --- | --- | --- |
| COC(=O)C(NC(=O)C(CC(=O)OCc1ccccc1)NC(=O)OCc1ccccc1)C1CCCCC1 (stereo not drawn) (Cbz-Asp(OBn)-[Chg]-OMe; configuration not given here) | > 100 µM (inactive) | < 0.01 µM (active) | > 100 µM (inactive) | > 100 µM (inactive) | > 100 µM (inactive) | > 100 µM (inactive) | > 100 µM (inactive) | > 100 µM (inactive) | > 100 µM (inactive) | > 100 µM (inactive) | > 100 µM (inactive) | > 100 µM (inactive) | 51.9 µM (inactive) | > 100 µM (inactive) | > 100 µM (inactive) | > 100 µM (inactive) | 78.3 µM (inactive) | > 100 µM (inactive) | > 100 µM (inactive) | – |
| C/C(=N/NC(=S)N1CCCC1)c1cccc(/C(C)=N\NC(=S)N2CCCC2)n1 | – | 3.49 µM (inactive) | 1.38 µM (inactive) | 0.791 µM (active) | 1.84 µM (inactive) | 2.57 µM (inactive) | 1.06 µM (active) | 1.68 µM (inactive) | 1.97 µM (inactive) | 0.453 µM (active) | 0.267 µM (active) | 1.44 µM (inactive) | 1.7 µM (inactive) | 1.22 µM (inactive) | 0.152 µM (active) | 1.46 µM (inactive) | 0.0318 µM (active) | 1.8 µM (inactive) | 1.37 µM (inactive) | 2.23 µM (inactive) |
| O=C1CC2(CCN(CC3COc4ccccc4O3)CC2)C(=O)N1N1CCCCCC1 (stereo not drawn) | 37.2 µM (inactive) | 44.1 µM (inactive) | – | 73.5 µM (inactive) | 94.4 µM (inactive) | > 100 µM (inactive) | – | > 100 µM (inactive) | > 100 µM (inactive) | 17.6 µM (inactive) | – | > 100 µM (inactive) | > 100 µM (inactive) | – | > 100 µM (inactive) | > 100 µM (inactive) | 21.4 µM (inactive) | 78.5 µM (inactive) | > 100 µM (inactive) | 61.7 µM (inactive) |
| CC1(C)CCC(C)(C)C1C(=O)NC(O)C(=O)O (stereo not drawn) | > 100 µM (inactive) | > 100 µM (inactive) | > 100 µM (inactive) | > 100 µM (inactive) | – | > 100 µM (inactive) | > 100 µM (inactive) | > 100 µM (inactive) | > 100 µM (inactive) | > 100 µM (inactive) | > 100 µM (inactive) | > 100 µM (inactive) | > 100 µM (inactive) | – | > 100 µM (inactive) | > 100 µM (inactive) | – | – | > 100 µM (inactive) | – |
| CCCCCCCCCCCCCP(=O)(NCC(N)=O)OCC (stereo not drawn) | – | – | – | 21.8 µM (inactive) | 17.7 µM (inactive) | 18.7 µM (inactive) | 20.6 µM (inactive) | 19.1 µM (inactive) | 18.2 µM (inactive) | 13.8 µM (inactive) | 19.9 µM (inactive) | 20.3 µM (inactive) | 16.3 µM (inactive) | 18.4 µM (inactive) | 19.2 µM (inactive) | 21.3 µM (inactive) | 17.2 µM (inactive) | > 10 µM (inactive) | 15.4 µM (inactive) | – |
| O=C(NCCCCCCCCNC(=O)c1cccc2ccccc12)c1cccc2ccccc12 | 71.4 µM (inactive) | – | > 100 µM (inactive) | 17.1 µM (inactive) | 44.8 µM (inactive) | 20.1 µM (inactive) | 65.3 µM (inactive) | 9.93 µM (inactive) | > 59 µM (inactive) | > 100 µM (inactive) | > 100 µM (inactive) | 34.2 µM (inactive) | 37.2 µM (inactive) | > 100 µM (inactive) | 19.5 µM (inactive) | 10.7 µM (inactive) | > 100 µM (inactive) | 9.4 µM (inactive) | 4.89 µM (inactive) | 39.6 µM (inactive) |
| O=C(NCCCCNCCCNC(=O)C(F)(F)F)C(F)(F)F | > 100 µM (inactive) | > 100 µM (inactive) | – | > 100 µM (inactive) | – | > 100 µM (inactive) | > 100 µM (inactive) | > 100 µM (inactive) | > 100 µM (inactive) | 5.07 µM (inactive) | > 100 µM (inactive) | > 100 µM (inactive) | > 100 µM (inactive) | > 100 µM (inactive) | > 100 µM (inactive) | 26.8 µM (inactive) | > 100 µM (inactive) | > 100 µM (inactive) | > 100 µM (inactive) | > 100 µM (inactive) |
| COc1ccc2c(c1)CCCN1CCc3ccccc3C21 (stereo not drawn) | 69.7 µM (inactive) | 35.7 µM (inactive) | 18.9 µM (inactive) | 47.3 µM (inactive) | 37.2 µM (inactive) | 42.6 µM (inactive) | 56.1 µM (inactive) | 39.9 µM (inactive) | 36.5 µM (inactive) | 17.1 µM (inactive) | 67.8 µM (inactive) | 37.3 µM (inactive) | 40.5 µM (inactive) | 34.7 µM (inactive) | 76.4 µM (inactive) | 52.2 µM (inactive) | 33.3 µM (inactive) | 52.1 µM (inactive) | 26.6 µM (inactive) | – |
| CN(C)c1ccc(/C=C(/NC(=O)c2ccccc2)c2nc3cc(Cl)ccc3[nH]2)cc1 | – | – | – | 48.9 µM (inactive) | 23.1 µM (inactive) | 45.1 µM (inactive) | 33.6 µM (inactive) | > 100 µM (inactive) | 83.9 µM (inactive) | 16 µM (inactive) | 10.4 µM (inactive) | 63.2 µM (inactive) | 37.1 µM (inactive) | 15.6 µM (inactive) | 87.3 µM (inactive) | 52.6 µM (inactive) | 28.6 µM (inactive) | 22 µM (inactive) | 27.8 µM (inactive) | – |
| Cc1cccc2nc3n(c12)C(=O)c1ccccc1-3 | > 100 µM (inactive) | – | 43.2 µM (inactive) | > 100 µM (inactive) | > 100 µM (inactive) | > 100 µM (inactive) | > 100 µM (inactive) | > 100 µM (inactive) | > 100 µM (inactive) | > 100 µM (inactive) | > 100 µM (inactive) | > 100 µM (inactive) | > 100 µM (inactive) | > 100 µM (inactive) | 91.4 µM (inactive) | > 100 µM (inactive) | > 100 µM (inactive) | > 100 µM (inactive) | > 100 µM (inactive) | > 100 µM (inactive) |
| CCOc1cc2c(=O)oc3c(OC)ccc4ccc(c1OC)c2c43 | > 100 µM (inactive) | 44.8 µM (inactive) | > 100 µM (inactive) | 37.4 µM (inactive) | > 100 µM (inactive) | 59.2 µM (inactive) | 25.1 µM (inactive) | > 100 µM (inactive) | > 100 µM (inactive) | > 100 µM (inactive) | > 100 µM (inactive) | 28.5 µM (inactive) | > 100 µM (inactive) | > 100 µM (inactive) | > 100 µM (inactive) | 25.1 µM (inactive) | 97.5 µM (inactive) | 16.7 µM (inactive) | 36.5 µM (inactive) | – |
| CCCCCCCCCCCCCCCCCC(=O)OCC(COC1OC(CS(=O)(=O)O)C(O)C(O)C1O)OC(=O)CCCCCCCCCCCCCCCCC (stereo not drawn) | > 100 µM (inactive) | > 100 µM (inactive) | > 100 µM (inactive) | > 100 µM (inactive) | > 100 µM (inactive) | > 100 µM (inactive) | > 100 µM (inactive) | > 100 µM (inactive) | > 100 µM (inactive) | > 100 µM (inactive) | > 100 µM (inactive) | > 100 µM (inactive) | – | > 100 µM (inactive) | > 100 µM (inactive) | > 100 µM (inactive) | > 100 µM (inactive) | > 100 µM (inactive) | > 100 µM (inactive) | – |
| CCOC(=O)Cn1c(=O)c2nc(SC)sc2n(-c2ccccc2)c1=S | > 100 µM (inactive) | 4.18 µM (inactive) | 40.8 µM (inactive) | 13.9 µM (inactive) | 18.8 µM (inactive) | 13.4 µM (inactive) | 30.1 µM (inactive) | 32.4 µM (inactive) | 96.6 µM (inactive) | 32.3 µM (inactive) | 50.4 µM (inactive) | 82.2 µM (inactive) | 17.5 µM (inactive) | 25.8 µM (inactive) | – | 22.7 µM (inactive) | > 100 µM (inactive) | 68.1 µM (inactive) | 12.1 µM (inactive) | – |
| C/C(=C\c1ccccc1)C(=O)c1c(C)cc(C)cc1C | – | – | – | > 100 µM (inactive) | > 100 µM (inactive) | > 100 µM (inactive) | > 100 µM (inactive) | > 100 µM (inactive) | > 100 µM (inactive) | > 100 µM (inactive) | > 100 µM (inactive) | > 100 µM (inactive) | > 100 µM (inactive) | > 100 µM (inactive) | > 100 µM (inactive) | > 100 µM (inactive) | > 100 µM (inactive) | > 100 µM (inactive) | > 100 µM (inactive) | – |
| CCC1(O)C(=O)OCc2c1cc1n(c2=O)Cc2cc3ccc(CO)cc3nc2-1 (stereo not drawn) | – | – | – | 2.86 µM (inactive) | 4.53 µM (inactive) | 1.93 µM (inactive) | 1.09 µM (active) | 0.995 µM (active) | > 78.5 µM (inactive) | 2.57 µM (inactive) | 7.52 µM (inactive) | 6.04 µM (inactive) | 18 µM (inactive) | 9.35 µM (inactive) | 16.8 µM (inactive) | 2.26 µM (inactive) | 9.35 µM (inactive) | 1.64 µM (inactive) | 1.99 µM (inactive) | – |
